Data taken from ChEMBL document CHEMBL1201862, “PubChem BioAssay data set” (2004).
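All cell lines were grown in 96-well plates and treated with compound for 48 hours. The concentration for 50% growth inhibition is given as GI50.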 The source made the active and inactive calls. Rule as the data show it: active = GI50 up to about 1.1 µM and inactive = higher.

Key:
Experiment in all cases: NCI tumour cell line growth inhibition, 48 h
[1] = system: 786-0
[2] = system: DU-145
[3] = system: EKVX
[4] = system: HCT-15
[5] = system: HOP-62
[6] = system: IGROV-1
[7] = system: MCF7
[8] = system: Malme-3M
[9] = system: NCI-H23
[10] = system: NCI/ADR-RES
[11] = system: OVCAR-3
[12] = system: OVCAR-5
[13] = system: OVCAR-8
[14] = system: RPMI-8226
[15] = system: RXF 393
[16] = system: SK-MEL-28
[17] = system: SW-620
[18] = system: UACC-257
[19] = system: UO-31
[20] = system: LOX IMVI

| Structure (SMILES) | GI50 [1] | GI50 [2] | GI50 [3] | GI50 [4] [µM] | GI50 [5] | GI50 [6] | GI50 [7] | GI50 [8] | GI50 [9] | GI50 [10] | GI50 [11] | GI50 [12] | GI50 [13] | GI50 [14] | GI50 [15] | GI50 [16] | GI50 [17] | GI50 [18] | GI50 [19] | GI50 [20] |
| --- | --- | --- | --- | --- | --- | --- | --- | --- | --- | --- | --- | --- | --- | --- | --- | --- | --- | --- | --- | --- |
| C[N+](C)(C)CC1CCCc2ccccc2C1=O (stereo not drawn) | 2.44 µM (inactive) | > 42.1 µM (inactive) | 6.46 µM (inactive) | 5.98 | 18.8 µM (inactive) | 16.6 µM (inactive) | 2.04 µM (inactive) | 5.79 µM (inactive) | 17.9 µM (inactive) | 7.06 µM (inactive) | 7.26 µM (inactive) | 13.3 µM (inactive) | 8.28 µM (inactive) | 0.265 µM (active) | 6.28 µM (inactive) | 18.2 µM (inactive) | 2.04 µM (inactive) | 13.7 µM (inactive) | 16.9 µM (inactive) | – |
| O=C(N/N=C/c1ccco1)c1cc(I)cc(I)c1O | 15 µM (inactive) | 23.4 µM (inactive) | 12.4 µM (inactive) | 19.7 | – | 15.8 µM (inactive) | 24.2 µM (inactive) | 22.2 µM (inactive) | 21.7 µM (inactive) | 20.7 µM (inactive) | – | 7.85 µM (inactive) | 19.4 µM (inactive) | 15.2 µM (inactive) | 20.7 µM (inactive) | 28.2 µM (inactive) | 22.2 µM (inactive) | – | 24 µM (inactive) | 16.4 µM (inactive) |
| N#C/C=C(/NC(=O)Nc1ccccc1)N1CCCC1 | 31.9 µM (inactive) | > 50.9 µM (inactive) | > 59.7 µM (inactive) | > 56.2 | – | > 55.8 µM (inactive) | > 33.1 µM (inactive) | > 45 µM (inactive) | > 49.3 µM (inactive) | > 39.9 µM (inactive) | > 100 µM (inactive) | > 65.6 µM (inactive) | > 32.5 µM (inactive) | > 82 µM (inactive) | > 100 µM (inactive) | > 47.9 µM (inactive) | > 44.2 µM (inactive) | 45.6 µM (inactive) | > 89.3 µM (inactive) | > 66.7 µM (inactive) |
| CCOC(=O)n1c(=O)nc2c3c(ncn21)Oc1c(c(-c2ccccc2)nn1-c1ccccc1)C3c1ccc(Cl)cc1 (stereo not drawn) | 1.52 µM (inactive) | 1.71 µM (inactive) | – | 1.18 | 1.77 µM (inactive) | – | 1.56 µM (inactive) | 1.84 µM (inactive) | 1.69 µM (inactive) | 1.73 µM (inactive) | 1.48 µM (inactive) | 2.1 µM (inactive) | 1.69 µM (inactive) | 1.46 µM (inactive) | 1.57 µM (inactive) | 1.79 µM (inactive) | 1.71 µM (inactive) | 1.8 µM (inactive) | 1.49 µM (inactive) | 1.46 µM (inactive) |
| CCC(NC(C)c1ccccc1)C(=O)c1ccc(OCc2ccccc2)c(OCc2ccccc2)c1 (stereo not drawn) | > 100 µM (inactive) | > 100 µM (inactive) | > 100 µM (inactive) | > 100 | > 100 µM (inactive) | > 100 µM (inactive) | > 100 µM (inactive) | > 100 µM (inactive) | > 100 µM (inactive) | > 100 µM (inactive) | > 100 µM (inactive) | > 100 µM (inactive) | > 100 µM (inactive) | > 100 µM (inactive) | > 100 µM (inactive) | > 100 µM (inactive) | > 100 µM (inactive) | – | > 100 µM (inactive) | > 100 µM (inactive) |
| O=C(/C=C/c1ccccc1)CSc1nc[nH]n1 | > 100 µM (inactive) | > 100 µM (inactive) | > 100 µM (inactive) | 41.3 | > 100 µM (inactive) | > 100 µM (inactive) | 36.4 µM (inactive) | > 100 µM (inactive) | > 100 µM (inactive) | > 100 µM (inactive) | > 100 µM (inactive) | > 100 µM (inactive) | > 100 µM (inactive) | 35.1 µM (inactive) | > 100 µM (inactive) | 56.9 µM (inactive) | 65.5 µM (inactive) | > 100 µM (inactive) | > 100 µM (inactive) | – |
| Cc1nc2ccc(Cl)cc2c2c1CCS2 | 66.4 µM (inactive) | 91.2 µM (inactive) | – | > 100 | > 100 µM (inactive) | 47.8 µM (inactive) | 33.3 µM (inactive) | 90.2 µM (inactive) | 75 µM (inactive) | 51.4 µM (inactive) | 47.8 µM (inactive) | > 100 µM (inactive) | 92 µM (inactive) | 16.3 µM (inactive) | 47.5 µM (inactive) | > 100 µM (inactive) | > 100 µM (inactive) | 97.7 µM (inactive) | 4.09 µM (inactive) | 38 µM (inactive) |
| COC(=O)C1=C(C(=O)OC)SC(=C2SC3=C(SC(=C4SCCS4)S3)S2)S1 | > 100 µM (inactive) | > 100 µM (inactive) | > 100 µM (inactive) | – | > 100 µM (inactive) | > 100 µM (inactive) | > 100 µM (inactive) | > 100 µM (inactive) | > 100 µM (inactive) | > 100 µM (inactive) | – | > 100 µM (inactive) | > 100 µM (inactive) | > 100 µM (inactive) | > 100 µM (inactive) | > 100 µM (inactive) | > 100 µM (inactive) | > 100 µM (inactive) | > 100 µM (inactive) | > 100 µM (inactive) |
| O=C1CSC(c2ccccc2O)N1c1ccc(-n2c(-c3ccccc3)nc3ccccc3c2=O)cc1 (stereo not drawn) | 20.1 µM (inactive) | 29.2 µM (inactive) | – | 6.84 | 20.6 µM (inactive) | 25.5 µM (inactive) | 28.1 µM (inactive) | 22.2 µM (inactive) | 31.6 µM (inactive) | 21 µM (inactive) | 14.6 µM (inactive) | 30.8 µM (inactive) | 24.3 µM (inactive) | 21.1 µM (inactive) | 42.7 µM (inactive) | 28.4 µM (inactive) | 29.7 µM (inactive) | 26.7 µM (inactive) | 18.9 µM (inactive) | 13.1 µM (inactive) |
| NNC(=O)c1cc(=O)[nH][nH]1 | > 100 µM (inactive) | > 100 µM (inactive) | > 100 µM (inactive) | > 100 | – | > 100 µM (inactive) | > 100 µM (inactive) | > 100 µM (inactive) | > 100 µM (inactive) | > 100 µM (inactive) | – | > 100 µM (inactive) | > 100 µM (inactive) | > 100 µM (inactive) | > 100 µM (inactive) | – | > 100 µM (inactive) | > 100 µM (inactive) | > 100 µM (inactive) | – |
| COc1cccc2c(=O)c3c(O)c4cc(N(C)C)ccc4c(OC(C)=O)c3oc12 | 11.7 µM (inactive) | 17.8 µM (inactive) | 12.5 µM (inactive) | 12.7 | 15 µM (inactive) | – | 14.5 µM (inactive) | 2.56 µM (inactive) | 17.2 µM (inactive) | 21.7 µM (inactive) | 4 µM (inactive) | 38.9 µM (inactive) | 15.7 µM (inactive) | 13.2 µM (inactive) | 4.72 µM (inactive) | 10.5 µM (inactive) | 7.41 µM (inactive) | 12.9 µM (inactive) | 17.7 µM (inactive) | 12 µM (inactive) |
| NC1=C(Cl)C(=O)c2c(O)ccc(O)c2C1=O | 8.93 µM (inactive) | 2.2 µM (inactive) | 12 µM (inactive) | 3.37 | 5.36 µM (inactive) | 5.83 µM (inactive) | 1.55 µM (inactive) | 0.279 µM (active) | 2.05 µM (inactive) | 3.61 µM (inactive) | 2.22 µM (inactive) | 5.85 µM (inactive) | 3.82 µM (inactive) | 4.75 µM (inactive) | 7.45 µM (inactive) | 2.39 µM (inactive) | 3.15 µM (inactive) | 1.6 µM (inactive) | 9.06 µM (inactive) | 1.79 µM (inactive) |
| NC(=O)c1cc2ccccc2o/c1=N/c1ccccc1 | > 100 µM (inactive) | > 100 µM (inactive) | > 100 µM (inactive) | > 100 | > 100 µM (inactive) | > 100 µM (inactive) | > 100 µM (inactive) | > 100 µM (inactive) | > 100 µM (inactive) | > 100 µM (inactive) | > 100 µM (inactive) | > 100 µM (inactive) | > 100 µM (inactive) | > 100 µM (inactive) | > 100 µM (inactive) | > 100 µM (inactive) | > 100 µM (inactive) | > 100 µM (inactive) | – | > 100 µM (inactive) |
| Nc1ccc2c(c1)Nc1c3ccccc3nc3cccc-2c13 | 1.21 µM (inactive) | 1.59 µM (inactive) | 1.69 µM (inactive) | – | 1.3 µM (inactive) | 1.25 µM (inactive) | 0.794 µM (active) | 1.85 µM (inactive) | 1.48 µM (inactive) | 1.66 µM (inactive) | 1.72 µM (inactive) | 1.77 µM (inactive) | – | 1.84 µM (inactive) | 1.64 µM (inactive) | 1.99 µM (inactive) | 0.585 µM (active) | 2 µM (inactive) | 1.72 µM (inactive) | 1.3 µM (inactive) |
| O[C@H]1[C@H](O)[C@@H](O)[C@H](O)[C@@H](O)[C@H]1O [INOSITOL] | > 1000 µM (inactive) | > 1000 µM (inactive) | – | > 1000 | > 1000 µM (inactive) | > 1000 µM (inactive) | > 1000 µM (inactive) | > 1000 µM (inactive) | > 1000 µM (inactive) | > 1000 µM (inactive) | > 1000 µM (inactive) | > 1000 µM (inactive) | > 1000 µM (inactive) | > 1000 µM (inactive) | > 1000 µM (inactive) | > 1000 µM (inactive) | > 1000 µM (inactive) | > 1000 µM (inactive) | > 1000 µM (inactive) | > 1000 µM (inactive) |
